# Calls of active or inactive are those of the source. No rule for the calls is given here.
# System: GENE-TOX genotoxicity assays, various organisms and cells
# Experiment: GENE-TOX mutagenicity studies
# Settings: for call: Assay Type: In vivo carcinogenicity studies
# [1] = Species/Cell Type: Escherichia coli polA (W3110 vs P3478), Assay Type: Rec-assay, DNA effects (bacterial DNA repair), Assay Code: RE2-, Evaluation Type: Evaluation A (Pre-1980)
# [2] = Species/Cell Type: Escherichia coli polA (W3119 vs P3478), Assay Type: Rec-assay, DNA effects (bacterial DNA repair), Assay Code: RE1T, Evaluation Type: Evaluation A (Pre-1980)
# [3] = Species/Cell Type: Nonhuman, Assay Code: CCG+L, Evaluation Type: Evaluation A (Pre-1980)
# [4] = Species/Cell Type: Saccharomyces cerevisiae, Assay Type: Mitotic recombination or gene conversion, Assay Code: YEH-, Evaluation Type: Evaluation A (Pre-1980)
# [5] = Species/Cell Type: Salmonella typhimurium (one or more of the five standard strains: TA98, TA100, TA1535, TA1537, and TA1538), Assay Type: Histidine reverse gene mutation, Ames assay, Assay Code: SAL+*, Activation: With metabolic activation, Evaluation Type: Evaluation A (Pre-1980)
# [6] = Species/Cell Type: Salmonella typhimurium, Assay Type: Forward and reverse gene mutation, host-mediated assay, Assay Code: HMA-, Evaluation Type: Evaluation A (Pre-1980)
# [7] = Species/Cell Type: Syrian hamster embryo (SHE) cells, Assay Type: Cell transformation, clonal assay, Assay Code: CTC+, Evaluation Type: Evaluation A (Pre-1980)
# [8] = Species/Cell Type: Salmonella typhimurium (one or more of the five standard strains: TA98, TA100, TA1535, TA1537, and TA1538), Assay Type: Histidine reverse gene mutation, Ames assay, Assay Code: SAL+, Evaluation Type: Evaluation A (Pre-1980)
# [9] = Species/Cell Type: Fischer rat embryo (RLV/1706) cells, Assay Type: Cell transformation, viral enhanced, Assay Code: CTR+, Evaluation Type: Evaluation A (Pre-1980)
# [10] = Species/Cell Type: Mammalian polychromatic erythrocytes, Assay Type: Micronucleus test, chromosome aberrations, Assay Code: MNT+, Evaluation Type: Evaluation B (Post-1980)
# [11] = Species/Cell Type: Saccharomyces cerevisiae, Assay Type: Mitotic recombination or gene conversion, Assay Code: YEC+, Evaluation Type: Evaluation A (Pre-1980)
# [12] = Species/Cell Type: Saccharomyces cerevisiae, Assay Type: Mitotic recombination or gene conversion, Assay Code: YEH+, Evaluation Type: Evaluation A (Pre-1980)
# [13] = Species/Cell Type: Salmonella typhimurium (one or more of the five standard strains: TA98, TA100, TA1535, TA1537, and TA1538), Assay Type: Histidine reverse gene mutation, Ames assay, Assay Code: SALT, Evaluation Type: Evaluation A (Pre-1980)
# [14] = Species/Cell Type: Escherichia coli polA (W3119 vs P3478), Assay Type: Rec-assay, DNA effects (bacterial DNA repair), Assay Code: RE1+, Evaluation Type: Evaluation A (Pre-1980)
# [15] = Species/Cell Type: Salmonella typhimurium (one or more of the five standard strains: TA98, TA100, TA1535, TA1537, and TA1538), Assay Type: Histidine reverse gene mutation, Ames assay, Assay Code: SAL-, Evaluation Type: Evaluation A (Pre-1980)
smiles,measurement,setting,value
c1ccc2c(c1)ccc1c3ccccc3ccc21,mutagenic call,[1],inactive; negative
same,mutagenic call,[2],no conclusion
same,mutagenic call,"Species/Cell Type: Mammalian germ cells, Sex: Male, Assay Type: Chromosome aberrations in vivo, Assay Code: CY9-, Evaluation Type: Evaluation A (Pre-1980)",inactive; negative
same,mutagenic call,"Species/Cell Type: Mouse prostate cells, Assay Type: Cell transformation, Assay Code: CTM-, Evaluation Type: Evaluation A (Pre-1980)",inactive; negative
same,call,[3],active; positive
same,mutagenic call,"Species/Cell Type: Nonhuman, Assay Type: Sister-chromatid exchange (SCE) in vivo, Assay Code: SC3+, Evaluation Type: Evaluation B (Post-1980)",active; positive
same,mutagenic call,"Species/Cell Type: Nonhuman, Assay Type: Sister-chromatid exchange (SCE) in vivo, Assay Code: SC3T, Evaluation Type: Evaluation A (Pre-1980)",no conclusion
same,mutagenic call,[4],inactive; negative
same,mutagenic call,[5],active; positive
same,mutagenic call,[6],inactive; negative
same,mutagenic call,[7],active; positive
CC(C)NCC(O)c1ccc2ccccc2c1 (stereo not given),mutagenic call,"Species/Cell Type: Human diploid fibroblasts, Assay Type: Unscheduled DNA synthesis (UDS) in vitro, DNA effects, Assay Code: UDHT, Evaluation Type: Evaluation A (Pre-1980)",no conclusion
same,mutagenic call,"Species/Cell Type: Mammalian polychromatic erythrocytes, Assay Type: Micronucleus test, chromosome aberrations, Assay Code: MNTT, Evaluation Type: Evaluation B (Post-1980)",no conclusion
same,mutagenic call,"Species/Cell Type: Mouse, Sex: Male, Assay Type: Sperm morphology, Assay Code: SPI-, Evaluation Type: Evaluation A (Pre-1980)",inactive; negative
O=C(O)c1ccccc1[N+](=O)[O-],mutagenic call,[8],active; positive
ClC=C(Cl)Cl,mutagenic call,"Species/Cell Type: Drosophila melanogaster, Assay Type: Sex-linked recessive lethal gene mutation, Assay Code: SRL-, Evaluation Type: Evaluation A (Pre-1980)",inactive; negative
same,mutagenic call,[9],active; positive
same,mutagenic call,[10],active; positive
same,mutagenic call,"Species/Cell Type: Mouse, Sex: Female, Assay Type: Spot test, gene mutation, Assay Code: MST+, Evaluation Type: Evaluation A (Pre-1980)",active; positive
same,mutagenic call,"Species/Cell Type: Mouse, Sex: Male, Assay Type: Sperm morphology, Assay Code: SPI+, Evaluation Type: Evaluation A (Pre-1980)",active; positive
same,call,[3],active; positive
same,mutagenic call,"Species/Cell Type: Nonhuman, Assay Type: Sister-chromatid exchange (SCE) in vitro, Assay Code: SC2T, Evaluation Type: Evaluation B (Post-1980)",no conclusion
same,mutagenic call,"Species/Cell Type: Saccharomyces cerevisiae, Assay Type: Forward and reverse gene mutation, mitotic recombination and gene conversion, host-mediated assay, Assay Code: HME+, Evaluation Type: Evaluation A (Pre-1980)",active; positive
same,mutagenic call,[11],active; positive
same,mutagenic call,[12],active; positive
same,mutagenic call,"Species/Cell Type: Saccharomyces cerevisiae, Assay Type: Reverse gene mutation, Assay Code: YER+, Evaluation Type: Evaluation A (Pre-1980)",active; positive
same,mutagenic call,[13],no conclusion
same,mutagenic call,"Species/Cell Type: Tradescantia species, Assay Type: Gene mutation, Assay Code: TRM+, Evaluation Type: Evaluation A (Pre-1980)",active; positive
C=CCCl,mutagenic call,[14],active; positive
same,mutagenic call,[11],active; positive
same,mutagenic call,[12],active; positive
CC(C)(c1ccc(O)cc1)c1ccc(O)cc1 (tested in a mixture with another compound),mutagenic call,[8],active; positive
N/C=N/O,mutagenic call,[14],active; positive
COc1cc2cc3c4cc(OC)c(OC)cc4cc[n+]3c(C)c2cc1OC (tested in a mixture with another compound),mutagenic call,[13],no conclusion
Nc1ccccc1-c1ccccc1,mutagenic call,[1],inactive; negative
same,mutagenic call,[2],no conclusion
same,mutagenic call,"Species/Cell Type: Fischer rat embryo (RLV/1706) cells, Assay Type: Cell transformation, viral enhanced, Assay Code: CTR-, Evaluation Type: Evaluation A (Pre-1980)",inactive; negative
same,mutagenic call,"Species/Cell Type: Mouse embryo (AKR/ME) cells, Assay Type: Cell transformation, Assay Code: CTK+, Evaluation Type: Evaluation A (Pre-1980)",active; positive
same,call,"Species/Cell Type: Nonhuman, Assay Code: CCGT, Evaluation Type: Evaluation A (Pre-1980)",no conclusion
same,mutagenic call,"Species/Cell Type: Nonhuman, Assay Type: Sister-chromatid exchange (SCE) in vivo, Assay Code: SC3T, Evaluation Type: Evaluation B (Post-1980)",no conclusion
same,mutagenic call,"Species/Cell Type: Rat primary hepatocytes, Assay Type: Unscheduled DNA synthesis (UDS) in vitro, DNA effects, Assay Code: UDP-, Evaluation Type: Evaluation A (Pre-1980)",inactive; negative
same,mutagenic call,[4],inactive; negative
same,mutagenic call,[5],active; positive
same,mutagenic call,"Species/Cell Type: Salmonella typhimurium, Assay Type: Forward and reverse gene mutation, body fluid assay, Assay Code: BFU-, Evaluation Type: Evaluation A (Pre-1980)",inactive; negative
same,mutagenic call,[6],inactive; negative
same,mutagenic call,"Species/Cell Type: Syrian hamster embryo (SHE) cells, Assay Type: Cell transformation, clonal assay, Assay Code: CTC-, Evaluation Type: Evaluation A (Pre-1980)",inactive; negative
Cn1c(=O)c2c(n(C)c1=O)n(C)c(=O)n2C,mutagenic call,"Species/Cell Type: Allium cepa, Assay Type: Chromosome aberrations, Assay Code: ALC+D, Dose Response: With dose response, Evaluation Type: Evaluation A (Pre-1980)",active; positive
CNC(=O)ON=CC(C)(C)SC,mutagenic call,"Species/Cell Type: Human lymphocytes, Assay Type: Sister-chromatid exchange (SCE) in vitro, Assay Code: SCL+D, Dose Response: With dose response, Evaluation Type: Evaluation B (Post-1980)",active; positive
same,mutagenic call,"Species/Cell Type: Human, Assay Type: Sister-chromatid exchange (SCE) in vitro, Assay Code: SC1+D, Dose Response: With dose response, Evaluation Type: Evaluation B (Post-1980)",active; positive
same,call,"Species/Cell Type: Nonhuman, Assay Code: CCG-, Evaluation Type: Evaluation A (Pre-1980)",inactive; negative
COc1c(O)c2c(c3cc(C(=O)N4CCc5c4c(O)c(OC)c4[nH]c(C(=O)N6C[C@H]7C[C@@]78C6=CC(=O)c6[nH]cc(C)c68)cc54)[nH]c13)CCN2C(N)=O,mutagenic call,[10],active; positive
CCN(CC)c1ccc(N=Nc2ccccc2)cc1,mutagenic call,[4],inactive; negative
same,mutagenic call,[15],inactive; negative
C[C@H]1CCC[C@@]2(C)CCCC[C@]12O,mutagenic call,[15],inactive; negative
Cc1cc(C2(c3ccc(O)c(C)c3)OC(=O)c3ccccc32)ccc1O,mutagenic call,"Species/Cell Type: Allium cepa, Assay Type: Chromosome aberrations, Assay Code: ALC+, Evaluation Type: Evaluation A (Pre-1980)",active; positive
Cc1ccc2nc3c(ccc4ccccc43)c(C)c2c1,mutagenic call,"Species/Cell Type: Escherichia coli polA (W3110 vs P3478), Assay Type: Rec-assay, DNA effects (bacterial DNA repair), Assay Code: RE2T, Evaluation Type: Evaluation A (Pre-1980)",no conclusion
same,mutagenic call,[2],no conclusion
same,mutagenic call,[9],active; positive
same,mutagenic call,"Species/Cell Type: Mouse (BALB/c-3T3) cells, Assay Type: Cell transformation, Assay Code: CTB-, Evaluation Type: Evaluation A (Pre-1980)",inactive; negative
same,call,[3],active; positive
same,mutagenic call,[4],inactive; negative
same,mutagenic call,[5],active; positive
same,mutagenic call,[6],inactive; negative
same,mutagenic call,[7],active; positive
CN(N=O)C(=O)N[C@@H]1O[C@H](CO)[C@H](O)[C@H](O)[C@H]1O,mutagenic call,"Species/Cell Type: Chinese hamster lung (V79) cells, Assay Type: Forward gene mutation at the HPRT or ouabain locus, Assay Code: V79+, Evaluation Type: Evaluation A (Pre-1980)",active; positive

# From PubChem BioAssay AID1259408 (Genetic Toxicology Data Bank (GENE-TOX), 2018)
